Reference: US10392347B2, “2,4-dihydroxy-nicotinamides as APJ agonists” (BRISTOL-MYERS SQUIBB COMPANY, priority 2015, dated 2019)

These compounds were tested against T1, human APJ receptor (Homo sapiens, UniProt P35414) (assay: Intracellular cAMP accumulation assay (APJ hcAMP, HTRF)). Conditions: HEK293 cells stably expressing human APJ; read-out: Human APJ cAMP EC50 Potency range.
T1 construct: expressed in transfected cells
T1 sequence (P35414 1-380): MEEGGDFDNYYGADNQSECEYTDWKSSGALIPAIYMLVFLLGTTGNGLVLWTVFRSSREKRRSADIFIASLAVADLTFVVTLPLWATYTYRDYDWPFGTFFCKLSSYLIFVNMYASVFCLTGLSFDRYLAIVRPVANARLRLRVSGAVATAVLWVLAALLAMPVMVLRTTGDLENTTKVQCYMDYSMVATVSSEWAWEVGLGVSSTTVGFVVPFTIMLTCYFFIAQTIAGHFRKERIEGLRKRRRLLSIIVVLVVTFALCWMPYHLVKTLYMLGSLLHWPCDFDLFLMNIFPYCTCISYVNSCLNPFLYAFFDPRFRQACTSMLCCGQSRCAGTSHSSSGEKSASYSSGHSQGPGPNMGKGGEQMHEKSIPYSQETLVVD
Format: cell-based
Procedure: Intracellular cAMP Accumulation Assay
HEK293 cells stably expressing human APJ receptor were used to assess the activity of compounds. Cultured cells were detached and resuspended in the cAMP Homogeneous Time-Resolved Fluorescence (HTRF) assay buffer (Cisbio cat; #62AM4PEJ). […] Serial dilutions of a compound together with assay buffer containing […] and 2 μM forskolin were added to each well containing 5,000 cells and incubated for 30 minutes at room temperature. Subsequently, cAMP D2 reagent was added in the lysis buffer followed by the EuK antibody (Cisbio; cat #62AM4PEJ) and incubated for 60 min. The fluorescence emission ratio was measured using fluorometer. The intracellular cAMP concentrations (compound-stimulated inhibition of forskolin-mediated cAMP production) were calculated by extrapolation from a standard curve using known cAMP concentrations. The EC50 values were obtained by fitting the data to a sigmoidal concentration-response curve with variable slope.
The EC50 value of each compound is presented at the end of the example description.
The biological activity of the exemplified compounds of this invention determined by the assay described above is shown at the end of each example.

Row | SMILES | EC50
1 | CCCCc1nc(O)c(C(=O)N2CCC(c3ccc(Cl)cn3)C2)c(O)c1-c1c(OC)cccc1OC (single isomer, unassigned) [Example 74, (6-butyl-5-(2,6-dimethoxyphenyl)-2,4-dihydroxypyridin-3-yl)(3-(5-chloropyridin-2-yl)pyrrolidin-1-yl)methanone] | 0.01 to 10 nM

Same assay, conditions: HEK293 cells stably expressing human APJ; read-out: Human cAMP Potency range

Row | SMILES | EC50
2 | CCNCc1nc(O)c(C(=O)N2CCC(c3cccc(F)c3)C2)c(O)c1-c1c(OC)cccc1OC (single isomer, unassigned) [Example 149, 5-(2,6-dimethoxyphenyl)-6-[(ethylamino)methyl]-3-[3-(3-fluorophenyl)pyrrolidine-1-carbonyl]pyridine-2,4-diol] | 100 to 300 nM

Same assay, conditions: Table 1; HEK293 cells stably expressing human APJ, forskolin-stimulated cAMP; read-out: APJ cAMP EC50

Row | SMILES | EC50
3 | CCCCc1nc(O)c(C(=O)N(C)CCCCc2ccccc2)c(O)c1-c1c(OC)cccc1OC [Example 2, 6-butyl-5-(2,6-dimethoxyphenyl)-2,4-dihydroxy-N-methyl-N-(4-phenylbutyl)pyridine-3-carboxamide] | 100 to 300 nM
4 | CCCCc1nc(O)c(C(=O)N2CCN(c3ccc(Cl)cn3)CC2)c(O)c1-c1c(OC)cccc1OC [Example 6, 6-butyl-3-[4-(5-chloropyridin-2-yl)piperazine-1-carbonyl]-5-(2,6-dimethoxyphenyl)pyridine-2,4-diol] | 10 to 100 nM
5 | CCCCc1nc(O)c(C(=O)N2CCN(c3ccc(OCCOC)cc3)CC2)c(O)c1-c1c(OC)cccc1OC [Example 7, 6-butyl-5-(2,6-dimethoxyphenyl)-3-{4-[4-(2-methoxyethoxy)phenyl]piperazine-1-carbonyl}pyridine-2,4-diol] | 100 to 300 nM
6 | CCCCc1nc(O)c(C(=O)N2CCN(c3ccc(NC(=O)OC)cc3)CC2)c(O)c1-c1c(OC)cccc1OC [Example 10, methyl N-(4-{4-[6-butyl-5-(2,6-dimethoxyphenyl)-2,4-dihydroxypyridine-3-carbonyl]piperazin-1-yl}phenyl)carbamate] | 10 to 100 nM
7 | CCCCc1nc(O)c(C(=O)N2CCN(c3ncccc3C(F)(F)F)CC2)c(O)c1-c1c(OC)cccc1OC [Example 11, 6-butyl-5-(2,6-dimethoxyphenyl)-3-{4-[3-(trifluoromethyl)pyridin-2-yl]piperazine-1-carbonyl}pyridine-2,4-diol] | 10 to 100 nM
8 | CCCCc1nc(O)c(C(=O)N2CCN(c3nccc(C(F)(F)F)n3)CC2)c(O)c1-c1c(OC)cccc1OC [Example 13, 6-butyl-5-(2,6-dimethoxyphenyl)-3-{4-[4-(trifluoromethyl)pyrimidin-2-yl]piperazine-1-carbonyl}pyridine-2,4-diol] | 10 to 100 nM
9 | CCCCc1nc(O)c(C(=O)N2CCC(Cc3ccccc3)CC2)c(O)c1-c1c(OC)cccc1OC [Example 14, 3-(4-benzylpiperidine-1-carbonyl)-6-butyl-5-(2,6-dimethoxyphenyl)pyridine-2,4-diol] | 0.01 to 10 nM
10 | CCCCc1nc(O)c(C(=O)N2CCN(C(c3ccccc3)c3ccccc3)CC2)c(O)c1-c1c(OC)cccc1OC [Example 16, 6-butyl-5-(2,6-dimethoxyphenyl)-3-[4-(diphenylmethyl)piperazine-1-carbonyl]pyridine-2,4-diol] | 0.01 to 10 nM
11 | CCCCc1nc(O)c(C(=O)N2CCC(c3[nH]cnc3C)CC2)c(O)c1-c1c(OC)cccc1OC [Example 17, 6-butyl-5-(2,6-dimethoxyphenyl)-3-[4-(4-methyl-1H-imidazol-5-yl)piperidine-1-carbonyl]pyridine-2,4-diol] | 10 to 100 nM
12 | CCCCc1nc(O)c(C(=O)N2CCN(c3ccc(OC)cc3)CC2)c(O)c1-c1c(OC)cccc1OC [Example 18, 6-butyl-5-(2,6-dimethoxyphenyl)-3-[4-(4-methoxyphenyl)piperazine-1-carbonyl]pyridine-2,4-diol] | 10 to 100 nM
13 | CCCCc1nc(O)c(C(=O)N2CCC(c3ccccc3OC)CC2)c(O)c1-c1c(OC)cccc1OC [Example 19, 6-butyl-5-(2,6-dimethoxyphenyl)-3-[4-(2-methoxyphenyl)piperidine-1-carbonyl]pyridine-2,4-diol] | 10 to 100 nM
14 | CCCCc1nc(O)c(C(=O)N2CCC(c3cc(-c4ccco4)n[nH]3)CC2)c(O)c1-c1c(OC)cccc1OC [Example 20, 6-butyl-5-(2,6-dimethoxyphenyl)-3-{4-[3-(furan-2-yl)-1H-pyrazol-5-yl]piperidine-1-carbonyl}pyridine-2,4-diol] | 10 to 100 nM
15 | CCCCc1nc(O)c(C(=O)N2CCN(c3cccnn3)CC2)c(O)c1-c1c(OC)cccc1OC [Example 21, 6-butyl-5-(2,6-dimethoxyphenyl)-3-[4-(pyridazin-3-yl)piperazine-1-carbonyl]pyridine-2,4-diol] | 100 to 300 nM
16 | CCCCc1nc(O)c(C(=O)N2CCC(c3ccc(C(N)=O)cc3)CC2)c(O)c1-c1c(OC)cccc1OC [Example 24, 4-{1-[6-butyl-5-(2,6-dimethoxyphenyl)-2,4-dihydroxypyridine-3-carbonyl]piperidin-4-yl}benzamide] | 10 to 100 nM

Now from value to compound:

Row | EC50 | SMILES
17 | 100 to 300 nM | CCCCc1nc(O)c(C(=O)N2CCN(c3nccn3C)CC2)c(O)c1-c1c(OC)cccc1OC [Example 3, 6-butyl-5-(2,6-dimethoxyphenyl)-3-[4-(1-methyl-1H-imidazol-2-yl)piperazine-1-carbonyl]pyridine-2,4-diol]
18 | 100 to 300 nM | CCCCc1nc(O)c(C(=O)N2CCC(O)(c3cccnc3)CC2)c(O)c1-c1c(OC)cccc1OC [Example 4, 6-butyl-5-(2,6-dimethoxyphenyl)-3-[4-hydroxy-4-(pyridin-3-yl)piperidine-1-carbonyl]pyridine-2,4-diol]
19 | 10 to 100 nM | CCCCc1nc(O)c(C(=O)N2CCC(c3nc(CCC)no3)CC2)c(O)c1-c1c(OC)cccc1OC [Example 5, 6-butyl-5-(2,6-dimethoxyphenyl)-3-[4-(3-propyl-1,2,4-oxadiazol-5-yl)piperidine-1-carbonyl]pyridine-2,4-diol]
20 | 0.01 to 10 nM | CCCCc1nc(O)c(C(=O)N2CCN(c3ccccc3OC)CC2)c(O)c1-c1c(OC)cccc1OC [Example 12, 6-butyl-5-(2,6-dimethoxyphenyl)-3-[4-(2-methoxyphenyl)piperazine-1-carbonyl]pyridine-2,4-diol]
21 | 0.01 to 10 nM | CCCCc1nc(O)c(C(=O)N(C)CCc2ccccn2)c(O)c1-c1c(OC)cccc1OC [Example 15, 6-butyl-5-(2,6-dimethoxyphenyl)-2,4-dihydroxy-N-methyl-N-[2-(pyridin-2-yl)ethyl]pyridine-3-carboxamide]
22 | 100 to 300 nM | CCCCc1nc(O)c(C(=O)N2CCN(c3ccncc3)CC2)c(O)c1-c1c(OC)cccc1OC [Example 22, 6-butyl-5-(2,6-dimethoxyphenyl)-3-[4-(pyridin-4-yl)piperazine-1-carbonyl]pyridine-2,4-diol]
23 | 10 to 100 nM | CCCCc1nc(O)c(C(=O)N2CCC(c3ccccc3Cl)CC2)c(O)c1-c1c(OC)cccc1OC [Example 23, 6-butyl-3-[4-(2-chlorophenyl)piperidine-1-carbonyl]-5-(2,6-dimethoxyphenyl)pyridine-2,4-diol]

Same assay, conditions: Table 2; HEK293 cells stably expressing human APJ, forskolin-stimulated cAMP; read-out: APJ cAMP EC50

Row | SMILES | EC50
24 | CCCCc1nc(O)c(C(=O)N2CCCC2c2ccccn2)c(O)c1-c1c(OC)cccc1OC (racemic) [Example 8, 6-butyl-5-(2,6-dimethoxyphenyl)-3-[2-(pyridin-2-yl)pyrrolidine-1-carbonyl]pyridine-2,4-diol] | 0.01 to 10 nM
25 | CCCCc1nc(O)c(C(=O)N2CCC(c3nc(-c4cc(C)c(OC)cc4Cl)c(C)s3)C2)c(O)c1-c1c(OC)cccc1OC (racemic) [Example 9, 6-butyl-3-{3-[4-(2-chloro-4-methoxy-5-methylphenyl)-5-methyl-1,3-thiazol-2-yl]pyrrolidine-1-carbonyl}-5-(2,6-dimethoxyphenyl)pyridine-2,4-diol] | 0.01 to 10 nM
26 | CCCCc1nc(O)c(C(=O)N2CCC(c3cccc(Cl)c3)C2)c(O)c1-c1c(OC)cccc1OC (single isomer, unassigned) [Example 37, 6-butyl-3-[3-(3-chlorophenyl)pyrrolidine-1-carbonyl]-5-(2,6-dimethoxyphenyl)pyridine-2,4-diol] | 0.01 to 10 nM
27 | CCCCc1nc(O)c(C(=O)N2CCC(c3cccc(Cl)c3)C2)c(O)c1-c1c(OC)cccc1OC (single isomer, unassigned) [Example 38, 6-butyl-3-[3-(3-chlorophenyl)pyrrolidine-1-carbonyl]-5-(2,6-dimethoxyphenyl)pyridine-2,4-diol] | 0.01 to 10 nM
28 | CCCCc1nc(O)c(C(=O)N2CCC(c3ccc(F)cc3)C2)c(O)c1-c1c(OC)cccc1OC (single isomer, unassigned) [Example 39, 6-butyl-5-(2,6-dimethoxyphenyl)-3-[3-(4-fluorophenyl)pyrrolidine-1-carbonyl]pyridine-2,4-diol] | 0.01 to 10 nM
29 | CCCCc1nc(O)c(C(=O)N2CCC(c3ccc(F)cc3)C2)c(O)c1-c1c(OC)cccc1OC (single isomer, unassigned) [Example 40, 6-butyl-5-(2,6-dimethoxyphenyl)-3-[3-(4-fluorophenyl)pyrrolidine-1-carbonyl]pyridine-2,4-diol] | 0.01 to 10 nM
